In ChEMBL document CHEMBL1201862, “PubChem BioAssay data set” (2004):
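Method: 48-hour compound exposure of cells in 96-well plates, five concentrations, linear interpolation of endpoints. GI50 marks 50% less growth.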 Active and inactive are the calls of the source. No stated cut-off is given here; in the data, active = GI50 up to about 1.1 µM and inactive = higher.

Legend:
Experiment in all cases: inhibition of tumour cell growth, NCI panel, 48 h
[1] = tested on: 786-0
[2] = tested on: A498
[3] = tested on: BT-549
[4] = tested on: EKVX
[5] = tested on: HOP-62
[6] = tested on: Hs-578T
[7] = tested on: MDA-N
[8] = tested on: MOLT-4
[9] = tested on: OVCAR-4
[10] = tested on: OVCAR-5
[11] = tested on: OVCAR-8
[12] = tested on: PC-3
[13] = tested on: SR
[14] = tested on: T47D
[15] = tested on: TK-10
[16] = tested on: UACC-62
[17] = tested on: RPMI-8226
[18] = tested on: SF-539
[19] = tested on: SK-OV-3

Structure (SMILES) | GI50 [1] | GI50 [2] | GI50 [3] | GI50 [4] | GI50 [5] | GI50 [6] | GI50 [7] | GI50 [8] | GI50 [9] | GI50 [10] | GI50 [11] | GI50 [12] | GI50 [13] | GI50 [14] | GI50 [15] | GI50 [16] | GI50 [17] | GI50 [18] | GI50 [19]
Cc1ncc(COP(=O)(O)O)c(C)c1O | > 100 µM (inactive) | > 100 µM (inactive) | > 100 µM (inactive) | > 100 µM (inactive) | > 100 µM (inactive) | > 100 µM (inactive) | > 100 µM (inactive) | > 100 µM (inactive) | > 100 µM (inactive) | > 100 µM (inactive) | > 100 µM (inactive) | > 100 µM (inactive) | > 100 µM (inactive) | > 100 µM (inactive) | > 100 µM (inactive) | > 100 µM (inactive) | – | – | –
CCOC(=O)c1c(NC(=O)c2ccc(Br)cc2)sc2c1CCCC2 | > 100 µM (inactive) | 25.1 µM (inactive) | > 100 µM (inactive) | > 100 µM (inactive) | > 100 µM (inactive) | 75.5 µM (inactive) | > 100 µM (inactive) | > 100 µM (inactive) | – | > 100 µM (inactive) | > 100 µM (inactive) | > 100 µM (inactive) | > 100 µM (inactive) | > 100 µM (inactive) | > 100 µM (inactive) | > 100 µM (inactive) | > 100 µM (inactive) | > 100 µM (inactive) | –
N#Cc1c(C#N)c(SSc2c(C#N)c(C#N)c(N)n2-c2ccccc2)n(-c2ccccc2)c1N | 9.44 µM (inactive) | 20.7 µM (inactive) | 5.57 µM (inactive) | 20.9 µM (inactive) | 28.4 µM (inactive) | 24.7 µM (inactive) | 28.8 µM (inactive) | 5.89 µM (inactive) | 2.25 µM (inactive) | 36.4 µM (inactive) | > 100 µM (inactive) | 20.9 µM (inactive) | – | 2.44 µM (inactive) | 1.82 µM (inactive) | 16.9 µM (inactive) | 2.78 µM (inactive) | 92.9 µM (inactive) | 19.3 µM (inactive)
O=C1C(NCCc2cc(Cl)c(O)c(Cl)c2)=CC(=O)c2[nH]cnc21 | 55.5 µM (inactive) | 75.7 µM (inactive) | 33.7 µM (inactive) | 32.1 µM (inactive) | 44 µM (inactive) | 80 µM (inactive) | 19.6 µM (inactive) | 24.3 µM (inactive) | – | 88.7 µM (inactive) | 32.2 µM (inactive) | 45.9 µM (inactive) | 32.6 µM (inactive) | 21.7 µM (inactive) | 51.8 µM (inactive) | 18.8 µM (inactive) | 46.7 µM (inactive) | 39.5 µM (inactive) | –
O=C1/C(=C/c2ccc3c(c2)OCO3)Sc2scc(-c3ccc(O)c(O)c3)[n+]21 | 1.92 µM (inactive) | – | 2.04 µM (inactive) | 2.67 µM (inactive) | 6.44 µM (inactive) | 7.13 µM (inactive) | 3.12 µM (inactive) | 0.927 µM (active) | 4.2 µM (inactive) | 8.32 µM (inactive) | 2.99 µM (inactive) | 4.38 µM (inactive) | – | 2.97 µM (inactive) | 2.04 µM (inactive) | 2.67 µM (inactive) | 1.71 µM (inactive) | 2.31 µM (inactive) | 8.11 µM (inactive)
CCCC(=O)Nc1ccc2c(c1)CN1C(=O)c3ccccc3C1=N2 | > 100 µM (inactive) | – | > 100 µM (inactive) | – | > 100 µM (inactive) | > 100 µM (inactive) | > 100 µM (inactive) | > 100 µM (inactive) | > 100 µM (inactive) | > 100 µM (inactive) | > 100 µM (inactive) | > 100 µM (inactive) | > 100 µM (inactive) | > 100 µM (inactive) | > 100 µM (inactive) | > 100 µM (inactive) | > 100 µM (inactive) | > 100 µM (inactive) | > 100 µM (inactive)
Cc1ccc(S(=O)(=O)c2ccsc2NC(=O)C(F)(F)F)cc1 | 37.6 µM (inactive) | 53 µM (inactive) | 40.3 µM (inactive) | 46.6 µM (inactive) | 34.7 µM (inactive) | 32.7 µM (inactive) | 23.6 µM (inactive) | 18.5 µM (inactive) | 20.6 µM (inactive) | 50.1 µM (inactive) | 31.8 µM (inactive) | 37.6 µM (inactive) | – | 39.3 µM (inactive) | 61.1 µM (inactive) | 35.7 µM (inactive) | 8.02 µM (inactive) | 39.7 µM (inactive) | 36.8 µM (inactive)
N#Cc1nc(CSCc2ccccc2)oc1N | > 100 µM (inactive) | > 100 µM (inactive) | > 100 µM (inactive) | – | > 100 µM (inactive) | > 100 µM (inactive) | > 100 µM (inactive) | > 100 µM (inactive) | > 100 µM (inactive) | > 100 µM (inactive) | > 100 µM (inactive) | > 100 µM (inactive) | > 100 µM (inactive) | > 100 µM (inactive) | > 100 µM (inactive) | > 100 µM (inactive) | – | > 100 µM (inactive) | > 100 µM (inactive)
CN1CCC/C1=C1/C(=O)N(c2ccccc2)N=C1c1ccc[nH]1 | > 100 µM (inactive) | > 100 µM (inactive) | > 100 µM (inactive) | > 100 µM (inactive) | > 100 µM (inactive) | > 100 µM (inactive) | > 100 µM (inactive) | > 100 µM (inactive) | > 100 µM (inactive) | > 100 µM (inactive) | > 100 µM (inactive) | > 100 µM (inactive) | > 100 µM (inactive) | > 100 µM (inactive) | > 100 µM (inactive) | > 100 µM (inactive) | > 100 µM (inactive) | – | –
CCN1CCc2sc3nc(S)n(C)c(=O)c3c2C1 | > 100 µM (inactive) | > 100 µM (inactive) | > 100 µM (inactive) | > 100 µM (inactive) | > 100 µM (inactive) | > 100 µM (inactive) | > 100 µM (inactive) | > 100 µM (inactive) | > 100 µM (inactive) | > 100 µM (inactive) | > 100 µM (inactive) | > 100 µM (inactive) | – | > 100 µM (inactive) | > 100 µM (inactive) | > 100 µM (inactive) | > 100 µM (inactive) | > 100 µM (inactive) | > 100 µM (inactive)
N#Cc1sc2c(c1OC(=O)c1ccco1)c(=O)n(-c1ccccc1)c(=S)n2-c1ccccc1 | 31.1 µM (inactive) | – | 37.6 µM (inactive) | 52.6 µM (inactive) | 25.9 µM (inactive) | 57.4 µM (inactive) | 20.8 µM (inactive) | 13.8 µM (inactive) | 23.6 µM (inactive) | – | 29.9 µM (inactive) | 18.5 µM (inactive) | > 10 µM (inactive) | 21.1 µM (inactive) | 49.8 µM (inactive) | 15.3 µM (inactive) | 22.4 µM (inactive) | 26.1 µM (inactive) | 27.7 µM (inactive)
O=C(c1cccnc1)N1N=C(c2ccc(Cl)cc2)CC1(O)c1cc(F)c(Cl)cc1Cl (stereo not given) | 17.9 µM (inactive) | – | 24.6 µM (inactive) | 17.5 µM (inactive) | 21.5 µM (inactive) | 29.4 µM (inactive) | 16.7 µM (inactive) | 6.46 µM (inactive) | 15.8 µM (inactive) | 33.7 µM (inactive) | 25.1 µM (inactive) | 12.9 µM (inactive) | 8.85 µM (inactive) | 2.39 µM (inactive) | 41.1 µM (inactive) | – | 12.2 µM (inactive) | 12.2 µM (inactive) | 30.2 µM (inactive)
[N-]=[N+]=Nc1cc(=O)n2c3c(cccc13)CCC2 | > 100 µM (inactive) | > 100 µM (inactive) | > 100 µM (inactive) | 43.7 µM (inactive) | > 100 µM (inactive) | > 100 µM (inactive) | > 100 µM (inactive) | > 100 µM (inactive) | > 100 µM (inactive) | – | > 100 µM (inactive) | > 100 µM (inactive) | > 100 µM (inactive) | > 100 µM (inactive) | > 100 µM (inactive) | > 100 µM (inactive) | > 100 µM (inactive) | > 100 µM (inactive) | –
C=C(C)CNC(=S)N(N)c1ccc(OC)cc1 | > 100 µM (inactive) | – | > 100 µM (inactive) | 82.2 µM (inactive) | > 100 µM (inactive) | > 100 µM (inactive) | 99.3 µM (inactive) | 96.6 µM (inactive) | > 100 µM (inactive) | > 100 µM (inactive) | > 100 µM (inactive) | > 100 µM (inactive) | > 100 µM (inactive) | > 100 µM (inactive) | > 100 µM (inactive) | 24.2 µM (inactive) | > 100 µM (inactive) | > 100 µM (inactive) | > 100 µM (inactive)
CCC(C)(C)c1ccc(OCCCCNC(=O)c2ccc3ccccc3c2O)c(C(C)(C)CC)c1 | 15.1 µM (inactive) | 29.7 µM (inactive) | 30.8 µM (inactive) | 21.8 µM (inactive) | 33 µM (inactive) | 31.5 µM (inactive) | 35.6 µM (inactive) | 16.1 µM (inactive) | > 100 µM (inactive) | 69.5 µM (inactive) | 27.5 µM (inactive) | 6.08 µM (inactive) | > 100 µM (inactive) | 31 µM (inactive) | 13.4 µM (inactive) | 16.3 µM (inactive) | – | 33.1 µM (inactive) | 74 µM (inactive)
O=C(O)Cn1ccc(=O)c2cc([N+](=O)[O-])ccc21 | > 100 µM (inactive) | > 100 µM (inactive) | > 100 µM (inactive) | – | > 100 µM (inactive) | > 100 µM (inactive) | > 100 µM (inactive) | > 100 µM (inactive) | – | > 100 µM (inactive) | > 100 µM (inactive) | > 100 µM (inactive) | > 100 µM (inactive) | 33.1 µM (inactive) | > 100 µM (inactive) | > 100 µM (inactive) | – | > 100 µM (inactive) | > 100 µM (inactive)
